Where two headings read alike, the source gives them in different places.
Tests used:
[1] = test system: forty-four human cancer cell lines; experiment: Cell proliferation assay (ATPlite, 72 hours) in the 44 cell line Oncolines panel; type: cell-based; details: Homo sapiens
[2] = biological target: panel of more than 300 wild-type and mutant kinases (313 kinase panel) (Homo sapiens, UniProt P51617); experiment: Kinase profiling in a biochemical assay panel (mobility shift assays and ELISA), %-inhibition at 1 μM; selectivity entropy; details: kinase IRAK1; compound at 1 μM
[3] = biological target: panel of more than 300 wild-type and mutant kinases (313 kinase panel) (Homo sapiens, UniProt P51451); experiment: as above; details: kinase BLK; 1 μM compound
[4] = biological target: panel of more than 300 wild-type and mutant kinases (313 kinase panel) (Homo sapiens, UniProt P42684); experiment: as above; details: kinase ARG; 1 μM compound
[5] = biological target: T1, panel of more than 300 wild-type and mutant kinases (313 kinase panel) (Homo sapiens, UniProt P00540); experiment: as above; details: kinase MOS; 1 μM
T1 sequence (P00540 1-346): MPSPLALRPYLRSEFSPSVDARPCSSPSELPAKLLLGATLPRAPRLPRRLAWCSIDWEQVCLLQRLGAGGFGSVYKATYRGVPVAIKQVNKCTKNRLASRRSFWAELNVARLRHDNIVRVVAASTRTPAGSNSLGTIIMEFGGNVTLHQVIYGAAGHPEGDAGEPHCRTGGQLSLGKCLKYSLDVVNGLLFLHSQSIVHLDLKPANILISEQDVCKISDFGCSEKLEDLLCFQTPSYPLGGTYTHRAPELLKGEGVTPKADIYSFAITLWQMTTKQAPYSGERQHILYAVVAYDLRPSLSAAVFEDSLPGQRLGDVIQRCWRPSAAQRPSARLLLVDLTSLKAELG

[6] = biological target: panel of more than 300 wild-type and mutant kinases (313 kinase panel) (Homo sapiens, UniProt P07947, T348I); experiment: as above; details: kinase YES(T348I); compound at 1 μM
[7] = biological target: panel of more than 300 wild-type and mutant kinases (313 kinase panel) (Homo sapiens, UniProt P15056); experiment: as above; details: kinase BRAF; 1 μM compound
[8] = biological target: panel of more than 300 wild-type and mutant kinases (313 kinase panel) (Homo sapiens, UniProt P11362, V561M); experiment: as above; details: kinase FGFR1(V561M); compound at 1 μM
[9] = 4-4 cell, read-out: cell panel IC50, J82
[10] = 4-4 cell, read-out: cell panel IC50, SJCRH30
[11] = 4-4 cell, read-out: cell panel IC50, SR
[12] = 769-P, read-out: cell panel IC50, 769-P
[13] = 786-0, read-out: cell panel IC50, 786-0
[14] = A204, read-out: cell panel IC50, A-204
[15] = A498, read-out: cell panel IC50, A-498
[16] = A549, read-out: cell panel IC50, A-549
[17] = A-375, read-out: cell panel IC50, A375
[18] = A-427, read-out: cell panel IC50, A-427
[19] = ACHN, read-out: cell panel IC50, ACHN
[20] = AN3-CA, read-out: cell panel IC50, AN3 CA
[21] = AU565, read-out: cell panel IC50, AU-565
[22] = BT-20, read-out: cell panel IC50, BT-20
[23] = BT-549, read-out: cell panel IC50, BT-549
[24] = BXPC-3, read-out: cell panel IC50, BxPC-3
[25] = C-33-A, read-out: cell panel IC50, C-33 A
[26] = CAL-27, read-out: cell panel IC50, CAL 27
[27] = CCRF-CEM, read-out: cell panel IC50, CCRF-CEM
[28] = DLD-1, read-out: cell panel IC50, DLD-1
[29] = FaDu, read-out: cell panel IC50, FaDu
[30] = HCT-15, read-out: cell panel IC50, HCT-15
[31] = HCT-116, read-out: cell panel IC50, HCT-116
[32] = Hs-578T, read-out: cell panel IC50, Hs 578T
[33] = Jurkat E6.1, read-out: cell panel IC50, Jurkat E6.1
[34] = K562, read-out: cell panel IC50, K-562
[35] = LS174T, read-out: cell panel IC50, LS 174T
[36] = LoVo, read-out: cell panel IC50, LoVo
[37] = MG-63, read-out: cell panel IC50, MG-63
[38] = MOLT-4, read-out: cell panel IC50, MOLT-4
[39] = NCI-H82, read-out: cell panel IC50, NCI-H82
[40] = NCI-H460, read-out: cell panel IC50, NCI-H460
[41] = OVCAR-3, read-out: cell panel IC50, OVCAR-3
[42] = RPMI-7951, read-out: cell panel IC50, RPMI-7951
[43] = SHP77, read-out: cell panel IC50, SHP-77
[44] = SK-N-AS, read-out: cell panel IC50, SK-N-AS
[45] = SW48, read-out: cell panel IC50, SW48
[46] = SW480, read-out: cell panel IC50, SW480
[47] = SW-620, read-out: cell panel IC50, SW620
[48] = U2OS, read-out: cell panel IC50, U-2 OS
[49] = U-87 MG, 72 h, read-out: IC50 in cell proliferation assay (table S5 cellpanel data)

Compound `COc1cc2c(Nc3ccc(Br)cc3F)ncnc2cc1OCC1CCN(C)CC1` [vandetanib] has an IC50 [1, 9] of 5080 nM, an IC50 [1, 10] of 4020 nM and an IC50 [1, 11] of 4150 nM. For the same compound, the IC50 [1, 12] was 1220 nM, the IC50 [1, 13] was 4360 nM and the IC50 [1, 14] was 2500 nM. It also gave an IC50 [1, 15] of 3310 nM, an IC50 [1, 16] of 5490 nM and an IC50 [1, 17] of 3270 nM. For the same compound, the IC50 [1, 18] was 2550 nM, the IC50 [1, 19] was 2280 nM and the IC50 [1, 20] was 489 nM. For the same compound, the IC50 [1, 21] was 3510 nM, the IC50 [1, 22] was 14600 nM and the IC50 [1, 23] was 10000 nM. It also gave an IC50 [1, 24] of 2100 nM, an IC50 [1, 25] of 643 nM and an IC50 [1, 26] of 1000 nM. The IC50 [1, 27] was 6650 nM, the IC50 [1, 28] was 6070 nM and the IC50 [1, 29] was 1290 nM. It also gave an IC50 [1, 30] of 7380 nM, an IC50 [1, 31] of 9240 nM and an IC50 [1, 32] of 3910 nM. For the same compound, the IC50 [1, 33] was 3950 nM, the IC50 [1, 34] was 908 nM and the IC50 [1, 35] was 2810 nM. The IC50 [1, 36] was 1450 nM, the IC50 [1, 37] was 6460 nM and the IC50 [1, 38] was 3400 nM. For the same compound, the IC50 ([1]; MeWo, read-out: cell panel IC50, MeWo) was 5520 nM, the IC50 [1, 39] was 7200 nM and the IC50 [1, 40] was 11900 nM. The IC50 [1, 41] was 3080 nM, the IC50 [1, 42] was 4140 nM and the IC50 [1, 43] was 14600 nM. For the same compound, the IC50 [1, 44] was 4230 nM, the IC50 [1, 45] was > 31600 nM and the IC50 [1, 46] was 13800 nM. The IC50 [1, 47] was 16400 nM, the IC50 [1, 48] was 4090 nM and the IC50 [1, 49] was 7410 nM. For the same compound, the “%-inhibition of IRAK1” value [2] was 46%, the “%-inhibition, BLK” value [3] was 89% and the “%-inhibition, ARG” value [4] was 94%. The “%-inhibition of MOS” value [5] was 9%, the “%-inhibition of YES(T348I)” value [6] was 100% and the “%-inhibition, BRAF” value [7] was 24%.
`C[C@@H](Oc1cc(-c2cnn(C3CCNCC3)c2)cnc1N)c1c(Cl)ccc(F)c1Cl` [crizotinib] was tested, and the IC50 [1, 9] was 5230 nM, the IC50 ([1]; 4-4 cell, read-out: cell panel IC50, PA-1) was 888 nM and the IC50 [1, 10] was 1090 nM. For the same compound, the IC50 [1, 11] was 44 nM, the IC50 [1, 12] was 2960 nM and the IC50 [1, 13] was 3880 nM. It also gave an IC50 ([1]; A 172, read-out: cell panel IC50, A-172) of 1700 nM, an IC50 [1, 14] of 2460 nM and an IC50 [1, 15] of 2240 nM. For the same compound, the IC50 [1, 16] was 1180 nM, the IC50 [1, 17] was 1080 nM and the IC50 [1, 18] was 672 nM. For the same compound, the IC50 [1, 19] was 2240 nM, the IC50 [1, 20] was 1720 nM and the IC50 [1, 21] was 7790 nM. It also gave an IC50 [1, 22] of 12700 nM, an IC50 [1, 23] of 4890 nM and an IC50 [1, 24] of 1390 nM. It also gave an IC50 [1, 25] of 3040 nM, an IC50 [1, 26] of 1820 nM and an IC50 [1, 27] of 567 nM. For the same compound, the IC50 [1, 28] was 3000 nM, the IC50 [1, 29] was 5340 nM and the IC50 [1, 30] was 4840 nM. It also gave an IC50 [1, 31] of 1690 nM, an IC50 [1, 32] of 2750 nM and an IC50 [1, 33] of 1110 nM. The IC50 [1, 34] was 252 nM, the IC50 [1, 35] was 842 nM and the IC50 [1, 36] was 658 nM. For the same compound, the IC50 [1, 37] was 1730 nM, the IC50 [1, 38] was 347 nM and the IC50 [1, 39] was 854 nM. For the same compound, the IC50 [1, 40] was 1150 nM, the IC50 [1, 41] was 4560 nM and the IC50 [1, 42] was 1530 nM. The IC50 [1, 43] was 3120 nM, the IC50 [1, 44] was 1310 nM and the IC50 [1, 45] was 1960 nM. It also gave an IC50 [1, 46] of 3610 nM, an IC50 [1, 47] of 1330 nM and an IC50 [1, 48] of 1980 nM. For the same compound, the IC50 [1, 49] was 3910 nM, the “%-inhibition, ARG” value [4] was 80% and the “%-inhibition of MOS” value [5] was 1.25%. The “%-inhibition of YES(T348I)” value [6] was 93%, the “%-inhibition of FGFR1(V561M)” value [8] was 26% and the “%-inhibition, BRAF” value [7] was 12%.

Reference: publication PMC3961306, “Comparison of the Cancer Gene Targeting and Biochemical Selectivities of All Targeted Kinase Inhibitors Approved for Clinical Use” (PLoS ONE, 2014)
